Data on 13 compounds can be found in ChEMBL document CHEMBL1139194, “Antitumor agents. 256. Conjugation of paclitaxel with other antitumor agents: evaluation of novel conjugates as cytotoxic agents” (Bioorg Med Chem Lett, 2007).

Series [1] relates to 1A9. In words: Cytotoxicity against human 1A9 cells by sulforhodamine B assay. In kind it is functional. The settings on record: read-out: ED50 (the source's name). In general terms: In SRB staining, fixed cells bind dye roughly in proportion to their protein.
The test system of series [2] is HUVEC. Kind of series: Antiangiogenesis activity against HUVEC cells. In kind it is functional. The settings on record: Homo sapiens, read-out: ED50 (the source's name).
Series [3] deals with A549. In words: Cytotoxicity against human A549 cells by sulforhodamine B assay. In kind it is functional. The settings on record: read-out: ED50 (the source's name).
Series [4] is described as follows: Cytotoxicity against multi drug-resistant human KBVIN cells by sulforhodamine B assay. The settings on record: read-out: ED50 (the source's name). The class given is functional.
Series [5] has as its system KB. Kind of series: Cytotoxicity against human KB cells by sulforhodamine B assay. In kind it is functional. The settings on record: read-out: ED50 (the source's name).
Series [6] concerns DU-145. In words: Cytotoxicity against human DU145 cells by sulforhodamine B assay. In kind it is functional. The settings on record: read-out: ED50 (the source's name).
The test system of series [7] is MCF7. Kind of series: Cytotoxicity against human MCF7 cells by sulforhodamine B assay. The class given is functional. The settings on record: read-out: ED50 (the source's name).
Series [8] has as its system PC-3. Kind of series: Cytotoxicity against human PC3 cells by sulforhodamine B assay. In kind it is functional. The settings on record: read-out: ED50 (the source's name).
In series [9] the test system is LNCaP. Kind of series: Cytotoxicity against human LNCAP cells by sulforhodamine B assay. The class given is functional. The settings on record: read-out: ED50 (the source's name).
Series [10] in a line: Cytotoxicity against human MRC5 cells by sulforhodamine B assay. In kind it is cell-based. The settings on record: read-out: ED50 (the source's name).

For the compound `COc1ccc2c(c1)[C@@H](/N=C/c1ccc(C(=O)O[C@H]3C[C@H]4OC[C@@]4(OC(C)=O)[C@H]4[C@H](OC(=O)c5ccccc5)[C@]5(O)C[C@H](OC(=O)[C@H](O)[C@@H](NC(=O)c6ccccc6)c6ccccc6)C(C)=C([C@@H](OC(C)=O)C(=O)[C@]34C)C5(C)C)cc1)CCc1cc(OC)c(OC)c(OC)c1-2`, the EC50 in [1] came out at 2.3 nM; in [2], 293 nM; in series [3] it was 3.8 nM; in series [4] it was 308 nM; in [5] it was 2.3 nM.

For the compound `COc1cc2c(c(OC)c1O)-c1ccc(OC)c(=O)cc1[C@@H](NC(C)=O)CC2` [2-DESMETHYLCOLCHICIN], the EC50 in series [6] is 612 nM; in [1], 184 nM; in series [7], 361 nM; in [3], 951 nM; in series [4], 29000 nM; in series [8], 475 nM. Moreover, the EC50 amounted to 146 nM in [5] and 325 nM in series [9].

As for `CC(=O)O[C@H]1C(=O)[C@@]2(C)[C@H]([C@H](OC(=O)c3ccccc3)[C@]3(O)C[C@H](OC(=O)[C@H](O)[C@@H](NC(=O)c4ccccc4)c4ccccc4)C(C)=C1C3(C)C)[C@]1(OC(C)=O)CO[C@@H]1C[C@@H]2O` [PACLITAXEL], the EC50 in [6] was 1.3 nM; in [1], 1 nM; in series [7], 1.1 nM; in [3] it was 2.3 nM; in series [4], 311 nM; in [8], 55.5 nM. Also, the EC50 is 1.8 nM in series [5] and 2.6 nM in series [9].

For `COc1cc([C@@H]2c3cc4c(cc3[C@@H](N)[C@H]3COC(=O)[C@H]23)OCO4)cc(OC)c1O`, the EC50 in [6] turned out to be 3110 nM; in series [1] it was 739 nM; in series [7] it was 686 nM; in [3], 1070 nM; in [4] it was 2050 nM; in series [8] it was 1230 nM. Moreover, the results for the EC50 in series [5] and in series [9] were 111 nM and 680 nM, respectively.

Consider `COc1cc([C@@H]2c3cc4c(cc3[C@@H](O[C@H]3O[C@H]5CO[C@H](C)O[C@@H]5[C@@H](O)[C@@H]3O)[C@H]3COC(=O)[C@H]23)OCO4)cc(OC)c1O`, for which the EC50 in series [6] was found to be 1600 nM; in [1], 285 nM; in series [7], 11700 nM; in series [3] it was 1610 nM; in series [4] it was 14400 nM; in series [8] it was 9450 nM. The results for the EC50 in series [5] and in [9] were 1360 nM and 530 nM, respectively. Besides, the CC50 in series [10] was over 30 nM.

`COc1cc([C@@H]2c3cc4c(cc3[C@@H](Nc3ccc(C(=O)NCCCC(=O)O[C@@H](C(=O)O[C@H]5C[C@@]6(O)[C@@H](OC(=O)c7ccccc7)[C@@H]7[C@]8(OC(C)=O)CO[C@@H]8C[C@H](O)[C@@]7(C)C(=O)[C@H](OC(C)=O)C(=C5C)C6(C)C)[C@@H](NC(=O)c5ccccc5)c5ccccc5)cc3)[C@H]3COC(=O)[C@H]23)OCO4)cc(OC)c1O`: the EC50 in [6] worked out at 32.5 nM; in series [1], 8.1 nM; in series [7] it was 22.1 nM; in [3], 23.7 nM; in series [4], 6230 nM; in series [8], 42.8 nM. In addition, the EC50 stood at 13.9 nM in series [5] and 10.2 nM in [9]. For the same compound, the CC50 in series [10] was 6170 nM.

`CC[C@@]1(O)C(=O)OCn2c1cc1c(c2=O)Cc2c-1nc1ccccc1c2CNCCC(=O)O[C@@H](C(=O)O[C@H]1C[C@@]2(O)[C@@H](OC(=O)c3ccccc3)[C@@H]3[C@]4(OC(C)=O)CO[C@@H]4C[C@H](O)[C@@]3(C)C(=O)[C@H](OC(C)=O)C(=C1C)C2(C)C)[C@@H](NC(=O)c1ccccc1)c1ccccc1`: the EC50 in series [6] was 2.3 nM; in series [1], 1.5 nM; in series [2], 2.09 nM; in series [7] it was 2.7 nM; in series [3], 2.6 nM; in [4] it was 2050 nM. In addition, the results for the EC50 in series [8], in [5] and in series [9] were 3.1 nM, 1.9 nM and 1.2 nM, respectively. The CC50 in series [10] is 6130 nM.

In the case of `CC[C@@]1(O)C(=O)OCc2c1cc1n(c2=O)Cc2cc3ccccc3nc2-1` [CAMPTOTHECIN], the EC50 in [6] was 10.9 nM; in [1], 3.2 nM; in series [7], 3.2 nM; in [3], 6.9 nM; in series [4], 15 nM; in series [8], 16.7 nM. The EC50 in [5] was 20.9 nM; in [9], 2 nM.

In the case of `COc1ccc2c(c1)[C@@H](/N=C/c1ccc(C(=O)O[C@@H](C(=O)O[C@H]3C[C@@]4(O)[C@@H](OC(=O)c5ccccc5)[C@@H]5[C@]6(OC(C)=O)CO[C@@H]6C[C@H](O)[C@@]5(C)C(=O)[C@H](OC(C)=O)C(=C3C)C4(C)C)[C@@H](NC(=O)c3ccccc3)c3ccccc3)cc1)CCc1cc(OC)c(OC)c(OC)c1-2`, the EC50 in series [1] was found to be 2.3 nM; in [2], 43 nM; in series [3], 3.8 nM; in series [4], 308 nM; in series [5], 5.4 nM.

For the compound `COc1cc([C@@H]2c3cc4c(cc3[C@@H](/N=C/c3ccc(C(=O)O[C@H]5C[C@H]6OC[C@@]6(OC(C)=O)[C@H]6[C@H](OC(=O)c7ccccc7)[C@]7(O)C[C@H](OC(=O)[C@H](O)[C@@H](NC(=O)c8ccccc8)c8ccccc8)C(C)=C([C@@H](OC(C)=O)C(=O)[C@]56C)C7(C)C)cc3)[C@H]3COC(=O)[C@H]23)OCO4)cc(OC)c1O`, the EC50 in series [6] is 139 nM; in [1], 60.1 nM; in [2], 230 nM; in [7] it was 48.6 nM; in series [3], 111 nM; in [4], 6220 nM. In addition, the EC50 in series [8] was 145 nM; in [5] it was 53.8 nM; in series [9], 90.1 nM.

Take `COc1cc([C@@H]2c3cc4c(cc3[C@@H](NCc3ccc(C(=O)O[C@H]5C[C@H]6OC[C@@]6(OC(C)=O)[C@H]6[C@H](OC(=O)c7ccccc7)[C@]7(O)C[C@H](OC(=O)[C@H](O)[C@@H](NC(=O)c8ccccc8)c8ccccc8)C(C)=C([C@@H](OC(C)=O)C(=O)[C@]56C)C7(C)C)cc3)[C@H]3COC(=O)[C@H]23)OCO4)cc(OC)c1O`: the EC50 is 168 nM in series [6]; 75.7 nM in [1]; 68.2 nM in [7]; 124 nM in series [3]; 5200 nM in [4]; 192 nM in [8]. The EC50 was determined as 87.4 nM in series [5] and 128 nM in [9].

On to `CC[C@@]1(O)C(=O)OCn2c1cc1c(c2=O)Cc2c-1nc1ccccc1c2C=O`, for which the EC50 turned out to be 7.7 nM in [6]; 4.3 nM in [1]; 4.3 nM in [7]; 12.8 nM in [3]; 25 nM in series [4]; 18.4 nM in series [8]. Besides, the EC50 in series [5] came to 80.6 nM; in series [9] it was 4.3 nM.

In the case of `COc1cc2c(c(OC)c1O)-c1ccc(SC)c(=O)cc1[C@@H](NC(C)=O)CC2`, the EC50 turned out to be 114 nM in [6]; 43.6 nM in series [1]; 59.9 nM in series [7]; 99.8 nM in [3]; 7430 nM in series [4]; 112 nM in series [8]. The values for the EC50 in series [5] and in series [9] were 47.9 nM and 59.9 nM, respectively.
